Measured values from article PMC8873464, “Tuning the rate of aggregation of hIAPP into amyloid using small-molecule modulators of assembly” (Nature Communications, 2022).

How the values were obtained:
Type in all cases: binding
[1] = target: T1, human islet amyloid polypeptide (wt hIAPP) (Homo sapiens, UniProt P10997); test: Tyr37 fluorescence quenching titration; also SPR (Kd […]) and native ESI-MS/CID; known inhibitor used as control
T1 construct: gene IAPP; 37-residue synthetic peptide, amidated C-terminus, Cys-2/Cys-7 disulfide, monomeric
T1 sequence (P10997 34-70 limits assumed): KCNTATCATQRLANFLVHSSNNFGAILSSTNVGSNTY

[2] = target: T1, human islet amyloid polypeptide (wt hIAPP); test: Tyr37 fluorescence quenching and native ESI-MS (weak adduct); ThT acceleration of aggregation; no SPR response, no significant NMR CSPs
[3] = target: T1, human islet amyloid polypeptide (wt hIAPP); test: Tyr37 fluorescence quenching titration; also native ESI-MS, SPR (Kd […]), 2D NMR CSPs and ThT aggregation inhibition

Structure (SMILES): O=C(O[C@@H]1Cc2c(O)cc(O)cc2O[C@@H]1c1cc(O)c(O)c(O)c1)c1cc(O)c(O)c(O)c1 [EGCG]
- Kd [1]: 13 µM

Structure (SMILES): O=C(Nc1ccccc1F)c1cnc(-c2ccccc2)nc1CCNC(=O)C1CCCCC1 [YX-A-1]
- Kd [2]: ~280 µM

Structure (SMILES): CC(=O)N[C@H]1C[C@@H](c2ccc(NC(=O)Cn3nnc4ccccc43)cc2)O[C@@H](C(C)C)C1 [YX-I-1]
- Kd [3]: 32 µM
